For 16 compounds, IC50 results are on record in US10343992B2, “1-cyano-pyrrolidine compounds as USP30 inhibitors” (MISSION THERAPEUTICS LIMITED, priority 2015, dated 2019).

Chain of USP30 (Q70CQ3 57-517): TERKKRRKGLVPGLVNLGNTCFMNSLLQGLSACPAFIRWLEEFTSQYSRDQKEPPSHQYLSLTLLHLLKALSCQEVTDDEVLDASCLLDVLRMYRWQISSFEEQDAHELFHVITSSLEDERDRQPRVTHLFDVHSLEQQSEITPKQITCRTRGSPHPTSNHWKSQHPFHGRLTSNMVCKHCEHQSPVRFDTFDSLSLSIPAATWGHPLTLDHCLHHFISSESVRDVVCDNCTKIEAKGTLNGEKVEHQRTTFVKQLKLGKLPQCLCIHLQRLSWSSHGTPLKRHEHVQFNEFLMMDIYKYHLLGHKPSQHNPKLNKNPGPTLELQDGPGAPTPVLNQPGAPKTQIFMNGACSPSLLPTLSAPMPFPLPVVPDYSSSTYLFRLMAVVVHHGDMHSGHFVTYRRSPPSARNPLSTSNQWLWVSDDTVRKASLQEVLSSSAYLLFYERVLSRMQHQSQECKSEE

The target in the test is USP30 (Homo sapiens (Human), UniProt Q70CQ3). Nature of the test: USP30 biochemical FP or FI IC50 assay. The conditions noted are these: read-out: IC50 range. A digest of the protocol:
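Human USP30 preincubated 30 min at room temperature with compound (8-point series, 100 µM top final) in Tris pH 7.5, Tween 20, BSA, 5 mM β-mercaptoethanol, in duplicate. FP format: 50 nM TAMRA-peptide–isopeptide-ubiquitin substrate, ex 540/em 590. FI format: 100 nM ubiquitin-rhodamine 110, ex 487/em 535. Both read at 0 and after 2 h at room temperature.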
Usually IC50 stands for the point on the concentration scale where inhibition reaches its midpoint. In the case of `N#CN1CC[C@@H](NC(=O)N2CC(Oc3ccccc3)C2)C1` [Example 133, (R)-N-(1-cyanopyrrolidin-3-yl)-3-phenoxyazetidine-1-carboxamide], the IC50 was in the range of 100 to 1000 nM. As for `N#CN1CC[C@@H](NC(=O)N2CC(c3nc4ccccc4[nH]3)C2)C1` [Example 134, (R)-3-(1H-benzo[d]imidazol-2-yl)-N-(1-cyanopyrrolidin-3-yl)azetidine-1-carboxamide], the IC50 was 100 to 1000 nM.

As for `N#CN1CC[C@@H](NC(=O)N2CCN(c3ccccc3)CC2)C1` [Example 135, (R)-N-(1-cyanopyrrolidin-3-yl)-4-phenylpiperazine-1-carboxamide], the IC50 fell in the range of 100 to 1000 nM. Under `N#CN1CC[C@@H](NC(=O)N2CCOC(c3ccccc3)C2)C1` (stereo partly drawn) [Example 136, N-((R)-1-cyanopyrrolidin-3-yl)-2-phenylmorpholine-4-carboxamide] stands 100 to 1000 nM. As to `N#CN1CC[C@@H](NC(=O)N2CCCN(Cc3c(F)cccc3Cl)CC2)C1` [Example 137, (R)-4-(2-chloro-6-fluorobenzyl)-N-(1-cyanopyrrolidin-3-yl)-1,4-diazepane-1-carboxamide], the IC50 is 100 to 1000 nM. Consider `N#CN1CC[C@@H](NC(=O)N2CCCN(Cc3ccccc3)CC2)C1` [Example 138, (R)-4-benzyl-N-(1-cyanopyrrolidin-3-yl)-1,4-diazepane-1-carboxamide], for which the IC50 was 100 to 1000 nM. Under `N#CN1CC[C@@H](NC(=O)N2CCc3c([nH]c4ccccc34)C2)C1` [Example 139, (R)-N-(1-cyanopyrrolidin-3-yl)-1,3,4,9-tetrahydro-2H-pyrido[3,4-b]indole-2-carboxamide] stands 100 to 1000 nM. For `C[C@@H]1CN(c2cc(C(=O)N[C@@H]3CCN(C#N)C3)c(F)cn2)C[C@H](C)O1` [Example 140, N-((R)-1-cyanopyrrolidin-3-yl)-2-((2S,6R)-2,6-dimethylmorpholino)-5-fluoroisonicotinamide] the value was 100 to 1000 nM; for `N#CN1CC[C@@H](NC(=O)c2cc(N3Cc4ccccc4C3)ncc2F)C1` [Example 141, (R)-N-(1-cyanopyrrolidin-3-yl)-5-fluoro-2-(isoindolin-2-yl)isonicotinamide], 100 to 1000 nM; for `N#CN1CC[C@@H](NC(=O)c2ccc(Nc3ncccn3)c(F)c2)C1` [Example 142, (R)-N-(1-cyanopyrrolidin-3-yl)-3-fluoro-4-(pyrimidin-2-ylamino)benzamide], < 100 nM. Under `N#CN1CC[C@@H](NC(=O)c2ccc(N3CCCC3)cc2F)C1` [Example 143, (R)-N-(1-cyanopyrrolidin-3-yl)-2-fluoro-4-(pyrrolidin-1-yl)benzamide] stands < 100 nM. In the case of `N#CN1CC[C@@H](NC(=O)c2cc(F)c(N3CCCC3)cc2F)C1` [Example 145, (R)-N-(1-cyanopyrrolidin-3-yl)-2,5-difluoro-4-(pyrrolidin-1-yl)benzamide], the IC50 was < 100 nM. Under `CO[C@@H]1CCN(c2ccc(C(=O)N[C@@H]3CCN(C#N)C3)c(F)c2)C1` [Example 146, N-((R)-1-cyanopyrrolidin-3-yl)-2-fluoro-4-((R)-3-methoxypyrrolidin-1-yl)benzamide] stands 100 to 1000 nM. For the compound `COc1cc(C(=O)N[C@@H]2CCN(C#N)C2)ccc1Nc1ncccn1` [Example 147, (R)-N-(1-cyanopyrrolidin-3-yl)-3-methoxy-4-(pyrimidin-2-ylamino)benzamide], the IC50 fell in the range of 100 to 1000 nM. For `COc1cc(C(=O)N[C@@H]2CCN(C#N)C2)ccc1Nc1nccc(C)n1` [Example 148, (R)-N-(1-cyanopyrrolidin-3-yl)-3-methoxy-4-((4-methylpyrimidin-2-yl)amino)benzamide] the value was 100 to 1000 nM; for `COc1ccnc(Nc2ccc(C(=O)N[C@@H]3CCN(C#N)C3)c(F)c2)n1` [Example 149, (R)-N-(1-cyanopyrrolidin-3-yl)-2-fluoro-4-((4-methoxypyrimidin-2-yl)amino)benzamide], < 100 nM.
